# In US6730480B1, “Sphingosine kinase enzyme” (Johnson & Johnson Pharmaceutical Research and Development …, priority 1999, dated 2004):
# “Also recorded” adds a separate entry of the source.
# Target: T1, native sphingosine kinase (human placenta SK1) (Homo sapiens, UniProt Q9NYA1)
# T1 construct: from tissue; host or cells: human placenta
# Assay: Sphingosine kinase enzyme assay with native SK purified from human placenta
# Format: biochemical
# Conditions: metal ions or EDTA at 10 mM
# Method: Sphingosine kinase activity was routinely determined using D-erythro-sphingosine and [γ^32P]ATP as substrates, essentially as previously described (Olivera et al., 1998) with some modifications. […] Reactions were terminated and sphingosine-1-phosphate extracted by the addition of 700 μl of chloroform/methanol/HCl (100:200:1. v/v), followed by vigorous mixing, addition of 200 μp of chloroform and 200 μl of 2 M KCl, and phase separation by centrifugation. […] Sunnyvale, Calif.). One unit (U) of activity is defined as 1pmol of S1P formed per minute. […] Similarly, thermal stabilities were determined by assaying the residual activity after pre-incubation of the enzymes at various temperatures (4-80° C.) for 30 min at pH 7.4 (50 mM Tris/HCl containing 10% glycerol, 0.5 M NaCl and 0.05% Triton X-100). Substrate kinetics were analysed using Michaelis-Menten kinetics with a weighted non-linear regression program (Easterby, 1996). […] In both cases the data were analysed by non-linear regression. The effect of metal ions on the activity of the native and recombinant sphingosine kinases were determined by assaying the activity under standard conditions in the presence of various metal ions or EDTA at 10 mM. […] PC, phosphatidylcholine; PS phosphatidylserine; PE, […]; PI, phosphatidylinositol.
# T1 sequence (Q9NYA1 whole entry): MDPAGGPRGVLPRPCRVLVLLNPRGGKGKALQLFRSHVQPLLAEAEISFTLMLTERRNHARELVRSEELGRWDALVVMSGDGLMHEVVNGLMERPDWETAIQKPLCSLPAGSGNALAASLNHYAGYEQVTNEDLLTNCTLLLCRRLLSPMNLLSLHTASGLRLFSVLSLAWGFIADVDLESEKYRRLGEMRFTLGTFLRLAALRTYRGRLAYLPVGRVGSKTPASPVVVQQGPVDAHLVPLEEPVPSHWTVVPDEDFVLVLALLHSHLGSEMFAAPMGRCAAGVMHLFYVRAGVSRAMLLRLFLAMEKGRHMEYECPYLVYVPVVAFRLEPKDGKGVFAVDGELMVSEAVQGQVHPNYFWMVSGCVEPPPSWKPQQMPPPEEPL
row,Molecule,Metal ion requirement (sphingosine kinase activity)
1,[Zn+2] [ZN^2−],did not support sphingosine kinase activity
2,[Ca+2] [Ca^2+],only very low activity
3,[Fe+2] [Fe^2+],did not support sphingosine kinase activity
4,O=C(O)CN(CCN(CC(=O)O)CC(=O)O)CC(=O)O [EDTA],elimated activity

# Same assay, conditions: phospholipid at 10 mol% of Triton X-100
row,Molecule,Effect of phospholipid on sphingosine kinase activity
1,L-α-phosphatidylcholine,did not result in any detectable differences
2,L-α-phosphatidyldethanolamine,did not result in any detectable differences

# Same assay, conditions: substrate kinetics, bulk solution concentration
row,Molecule,Km
1,Nc1ncnc2c1ncn2[C@@H]1O[C@H](COP(=O)(O)OP(=O)(O)OP(=O)(O)O)[C@@H](O)[C@H]1O [ATP],77 ± 11 µM

# Same assay, conditions: substrates at 100 μM in 0.25% Triton X-100, relative to sphingosine
row,Molecule,Substrate specificity (phosphorylation by the enzyme)
1,"CCCCCCCC/C=C\CCCCCCCC(=O)OC[C@H](CO)OC(=O)CCCCCCC/C=C\CCCCCCCC [1,2-dioleoyl-sn-glycerol]",not phosphorylated; also recorded: No phosphorylation
2,"CCCCCCCCCCCCCC[C@@H](O)[C@@H](O)[C@@H](N)CO [phytosphingosine, Phytosphingosine]",Low activity
3,"CCCCCCCC(=O)OC[C@H](CO)OC(=O)CCCCCCC [1,2-dioctanoyl-sn-glycerol]",not phosphorylated; also recorded: No phosphorylation
4,L-α-phosphatidylinositol,not phosphorylated; also recorded: No phosphorylation

# Target: T2, recombinant human sphingosine kinase (Homo sapiens, UniProt Q9NYA1)
# T2 construct: The full length SPHK cDNA cloned into pGEX4T2 was transformed into E. coli BL21; GST (N, cleaved yes); made in house; host or cells: E. coli BL21
# T2 sequence (Q9NYA1 whole entry): as above
# Assay: Sphingosine kinase enzyme assay with recombinant human SK expressed in E. coli
# Format: biochemical
# Conditions: metal ions or EDTA at 10 mM
# Method: Sphingosine kinase activity was routinely determined using D-erythro-sphingosine and [γ^32P]ATP as substrates, essentially as previously described (Olivera et al., 1998) with some modifications. […] Reactions were terminated and sphingosine-1-phosphate extracted by the addition of 700 μl of chloroform/methanol/HCl (100:200:1. v/v), followed by vigorous mixing, addition of 200 μp of chloroform and 200 μl of 2 M KCl, and phase separation by centrifugation. […] Sunnyvale, Calif.). One unit (U) of activity is defined as 1pmol of S1P formed per minute. The full length SPHK cDNA cloned into pGEX4[…]. coli BL21. Overnight cultures (100 ml) of transformed isolates were grown with shaking (200 rpm) at 30° C. in Superbroth (20 g/L glucose, 35 g/L tryptone, 20 g/L yeast extract, 5 g/L NaCl, pH 7.5) medium containing ampicillin (100 mg/L). The cultures were diluted 1:20 in fresh medium and grown at 30° C. with shaking to an OD600 of 0.6-0.7. Expression of the glutathione-s-transferase (GST)-coupled sphingosine kinase (GST-SK) was then induced by addition of 0.1 mM isopropyl-β-D-thiogalactoside and further incubation of the cultures at 30° C. for 3 h. After this time the bacterial cells were then harvested by centrifugation at 6,000 g for 20 min at 4° C. and resuspended in 20 ml of buffer B containing 250 mM NaCl. the cells were then lysed with lysozyme at a final concentration of 0.3 mg/ml for 15 min at 25° C. followed by sonication, consisting of three cycles of 20 s ultrasonic pulses followed by one minute cooling. The lysate was then clarified by centrifugation at 50,000 g for 45 min at 4° C., followed by filtrating through 0.22 μm filters. To be filtered supernatant was then incubated with 0.2 volumes of 50% (w/v) glutathione-Sepharose 4B (Pharmacia) that was washed and pro-equilibrated with buffer B, for 60 min at 4° C. with constant mixing. After this time the mixture was poured into a glass chromatography column (10 mm diam.) and the beads (with bound GST-SK) washed with 10 column volumes of buffer B at 4° C. The GST-SK was then eluted from the column in 10 ml of buffer B containing 10 mM reduced glutathione. Cleavage of the GST away from sphingosine kinase was then performed by incubation with 20 μg (30 N.I.H. units) thrombin (Pharmacia) for 3 h at 25° C. The released sphingosine kinase was then purified by application of the cleavage mix to a calmodulin-Sepharose column and then a Mono-Q anion exchange column for the purification of the sphingosine kinase from human placenta. […] Similarly, thermal stabilities were determined by assaying the residual activity after pre-incubation of the enzymes at various temperatures (4-80° C.) for 30 min at pH 7.4 (50 mM Tris/HCl containing 10% glycerol, 0.5 M NaCl and 0.05% Triton X-100). Substrate kinetics were analysed using Michaelis-Menten kinetics with a weighted non-linear regression program (Easterby, 1996). […] In both cases the data were analysed by non-linear regression. The effect of metal ions on the activity of the native and recombinant sphingosine kinases were determined by assaying the activity under standard conditions in the presence of various metal ions or EDTA at 10 mM. […] PC, phosphatidylcholine; PS phosphatidylserine; PE, […]; PI, phosphatidylinositol.
row,Molecule,Metal ion requirement (sphingosine kinase activity)
1,[Zn+2] [ZN^2−],did not support sphingosine kinase activity
2,[Ca+2] [Ca^2+],only very low activity
3,[Fe+2] [Fe^2+],did not support sphingosine kinase activity
4,O=C(O)CN(CCN(CC(=O)O)CC(=O)O)CC(=O)O [EDTA],elimated activity

# Same assay, conditions: phospholipid at 10 mol% of Triton X-100
row,Molecule,Effect of phospholipid on sphingosine kinase activity
1,L-α-phosphatidylcholine,did not result in any detectable differences
2,L-α-phosphatidyldethanolamine,did not result in any detectable differences

# Same assay, conditions: substrate kinetics, bulk solution concentration
row,Molecule,Km
1,Nc1ncnc2c1ncn2[C@@H]1O[C@H](COP(=O)(O)OP(=O)(O)OP(=O)(O)O)[C@@H](O)[C@H]1O [ATP],86 ± 12 µM

# Same assay, conditions: substrates at 100 μM in 0.25% Triton X-100, relative to sphingosine
row,Molecule,Substrate specificity (phosphorylation by the enzyme)
1,"CCCCCCCC/C=C\CCCCCCCC(=O)OC[C@H](CO)OC(=O)CCCCCCC/C=C\CCCCCCCC [1,2-dioleoyl-sn-glycerol]",not phosphorylated; also recorded: No phosphorylation
2,"CCCCCCCCCCCCCC[C@@H](O)[C@@H](O)[C@@H](N)CO [phytosphingosine, Phytosphingosine]",Low activity
3,"CCCCCCCC(=O)OC[C@H](CO)OC(=O)CCCCCCC [1,2-dioctanoyl-sn-glycerol]",not phosphorylated; also recorded: No phosphorylation
4,L-α-phosphatidylinositol,not phosphorylated; also recorded: No phosphorylation
